Measurements reported in patent publication US20230103554A1, “TNFa SIGNALING [sequence] TUMOR-PROMOTING INFLAMMATION THAT CAN BE TARGETED TO THERAPY” (Baylor College of Medicine, priority 2020, published 2023).
“Also recorded” adds a separate entry of the source.

Tests used:
sTNFα production = assay: NB-monocyte co-culture, TNFα ELISA of supernatant; assay type: cell-based, human
Experimental: (§1) Monocytes were directly cultured with wild-type or TNF, TNFR1, TNFR2 KO NB cell lines in ULA plates for 24 hours. Activation of NF-kB in monocytes and NB was measured by flow cytometry and cytokine production measured by ELISA from co-culture supernatant. To evaluate the contact-dependence of monocyte activation by NB, monocytes were cultured in ULA plates with seven-day NB conditioned medium mixed 1:1 with complete monocyte medium for 24 hours and analyzed for IL-6 production. To assess the growth advantage of NB cultured with monocytes, NB-luc cell lines and monocytes were seeded in tissue culture-treated white 96-well plates (1:1 ratio) and cultured for four days. Luminescence was measured using a TECAN Spark plate reader (TECAN). To evaluate changes in proliferation, NB was pulsed for 10 minutes in CellTrace Violet (2 μM, Invitrogen) and seeded at 100,000 cells per well in a 12-well tissue culture-treated plate. Monocytes were added directly to the NB monolayer at a density of 100,000 per well and incubated for four days. CellTrace Violet expression was analyzed by flow cytometry.
(§2) Cytokines released by monocytes were detected within co-culture supernatants using the Human TNF-alpha Quantikine ELISA Kit (TNFα, R&D Systems) and the Human IL-6 Quantikine ELISA Kit (IL-6, R&D Systems) according to manufacturer's guidelines. ELISA plates were read using a TECAN Spark plate reader (TECAN). Global cytokine regulation was evaluated using a custom Luminex panel containing the following cytokines: CX3CL1, CXCL10, EGF, FGF-2, Flt3L, G-CSF, GM-CSF, IL-1α, IL-1β, IL-1Ra, IL-4, IL-6, IL-8, IL-10, IL-12 (p40), IL-12 (p′70), M-CSF, MCP-1, MCP-3, MDC, MIP-1α, MIP-1β, TGFα, TNFα, TNFβ, and VEGF-A (Human Cytokine Panel A, Millipore-Sigma).

monocyte IL-6 production = assay: NB-monocyte co-culture, IL-6 ELISA of supernatant; assay type: cell-based, human
Experimental: as §1, §2

[1] = tested on: NF-κB signaling in monocytes; assay: Intracellular IκBα in monocyte population of co-culture (PhosFlow flow cytometry); assay type: cell-based, human; conditions: TAPI 40 μM, 24 hours, vs vehicle control
Experimental: as §1
(§3) To evaluate the expression of TNFα in NB and monocytes, cells were first stimulated with LPS (50 ng/mL) in the presence of GolgiStop (BD Biosciences) and fixed using CytoFix/Cytoperm buffer (BD Biosciences). Cells were then stained with TNFα-PE (BD Biosciences). To evaluate the expression of TNFR1 and TNFR2 on NB and monocytes, cells were stained with TNFR1-BV421 and TNFR2-APC (BD Biosciences) in FACS staining buffer containing 0.05% sodium azide to prevent receptor/antibody processing. To estimate changes in NF-kB expression, treated co-cultures were first stained with ZombieViolet (1 μL/test, Biolegend) to counterstain dead cells and APC-H7 CD45 and/or FITC-CD14 to label monocytes for 20 minutes at room temperature. […] All flow samples were run using an LSRII 5-laser flow cytometer (Texas Children's Hospital Cancer Center Flow Cytometry Core, Houston, Tex.) and analyzed using FlowJo Software (Treestar).

mTNFα = conditions: TAPI 40 μM, 24 hours, CD45+GD2− monocyte population
Experimental: (FIG. 13C) NB and monocyte co-cultures were treated with TNF converting enzyme inhibitor TAPI (40 μM) or vehicle control (Veh., 0.2% DMSO) for 24 hours. Surface expression of mTNFα within CD45+GD2− monocyte population was performed using flow cytometry. MFI as indicated. Data are from a representative of two experiments run in duplicate.

[2] = tested on: NF-κB signaling in NB cells; assay: Intracellular IκBα in NB population of co-culture (PhosFlow flow cytometry); assay type: cell-based, human; conditions: TAPI 40 μM, 24 hours, vs vehicle control (FIG. 23C)
Experimental: as §1, §3

Structure (SMILES) | soluble (s)TNFα production from monocytes (sTNFα production; CHLA-255/monocyte co-culture, IKKi 0-1000 nM (FIG. 12D, FIG. 19)) | IL-6 production from monocytes (monocyte IL-6 production; CHLA-255/monocyte co-culture, IKKi 0-1000 nM (FIG. 12C, FIG. 19)) | IL-6 production in NB-monocyte co-cultures (monocyte IL-6 production; IKK inhibitor VII 125 nM, 24 hours, vs 0.1% DMSO (FIG. 1C)) | reduction in sTNFα levels in co-culture supernatant (sTNFα production; TAPI 40 μM, 24 hours) [%] | IL-6 levels in co-culture supernatant (monocyte IL-6 production; TAPI 40 μM, 24 hours, vs vehicle control) | intracellular IκBα expression in monocytes [1] | increase in surface staining for mTNFα (mTNFα) [%] | IκBα expression level in NB cells [2]
O=C(c1ccc(Nc2nccc(-c3cc4ccccc4s3)n2)cc1)N1CCC(N2CCCC2)CC1 [IKK inhibitor VII] | dose-dependent abrogation | dose-dependent abrogation | reversed IL-6 production | – | – | – | – | –
CC(C)C[C@H](CC(=O)NO)C(=O)N[C@@H](Cc1ccc2ccccc2c1)C(=O)N[C@@H](C)C(=O)NCCN [TAPI, TAPI-1] | – | – | – | 90 | increased the activation of monocytes as measured by IL-6 levels; also recorded: significantly increased IL-6 levels | no effect | 40 | significant increase in IκBα expression level
